Laboratory results from ChEMBL document CHEMBL4665640, “Structure-Activity Relationship Studies of 3- or 4-Pyridine Derivatives of DS-6930” (ACS Med Chem Lett, 2019).
Values belong to the compound of their own block, whether it stands above or below them.

How the values were obtained:
[1] = Microsomal stability in monkey liver microsomes assessed as parent compound remaining after 30 mins; format: ADME, Macaca mulatta, Microsome; details: rhesus monkey, read-out: Stabilty
[2] = Clearance in cynomolgus monkey at 1 mg/kg, iv by LC-MS/MS analysis; format: ADME, organism-based, Macaca fascicularis; details: in vivo
[3] = Bioavailability in cynomolgus monkey at 1 mg/kg, iv by LC-MS/MS analysis; format: ADME, organism-based, Macaca fascicularis; details: in vivo
[4] = 1-octanol/phosphate buffer distribution coefficient, log D of the compound at pH 7.4 measured after 30 mins by HPLC-LC/MS based shake flask method; format: physicochemical
[5] = Microsomal stability in human liver microsomes assessed as parent compound remaining after 30 mins; format: ADME, Microsome; details: read-out: Stabilty
[6] = Cmax in mouse at 3 mg/kg, po by LC-MS/MS analysis; format: ADME, organism-based; design: route oral, dose 3 mg/kg; details: in vivo
[7] = Microsomal stability in rat liver microsomes assessed as parent compound remaining after 30 mins; format: ADME, Microsome; details: read-out: Stabilty
[8] = Cmax in cynomolgus monkey at 3 mg/kg, po by LC-MS/MS analysis; format: ADME, organism-based, Macaca fascicularis; design: route oral, dose 3 mg/kg; details: in vivo
[9] = Tmax in cynomolgus monkey at 3 mg/kg, po by LC-MS/MS analysis; format: ADME, organism-based, Macaca fascicularis; details: in vivo
[10] = Half life in cynomolgus monkey at 3 mg/kg, po by LC-MS/MS analysis; format: ADME, organism-based, Macaca fascicularis; details: in vivo
[11] = AUClast in cynomolgus monkey at 3 mg/kg, po by LC-MS/MS analysis; format: ADME, organism-based, Macaca fascicularis; design: time 0 - last, route oral, dose 3 mg/kg; details: in vivo
[12] = Volume of distribution at steady state in cynomolgus monkey at 1 mg/kg, iv by LC-MS/MS analysis; format: ADME, organism-based, Macaca fascicularis; details: in vivo, read-out: Vdss
[13] = Cmax in rat at 3 mg/kg, po by LC-MS/MS analysis; format: ADME, organism-based; design: route oral, dose 3 mg/kg; details: in vivo
[14] = Tmax in rat at 3 mg/kg, po by LC-MS/MS analysis; format: ADME, organism-based; details: in vivo
[15] = Tmax in mouse at 3 mg/kg, po by LC-MS/MS analysis; format: ADME, organism-based; details: in vivo
[16] = Half life in rat at 3 mg/kg, po by LC-MS/MS analysis; format: ADME, organism-based; details: in vivo
[17] = Half life in mouse at 3 mg/kg, po by LC-MS/MS analysis; format: ADME, organism-based; details: in vivo
[18] = AUClast in rat at 3 mg/kg, po by LC-MS/MS analysis; format: ADME, organism-based; design: route oral, time 0 - last, dose 3 mg/kg; details: in vivo
[19] = AUClast in mouse at 3 mg/kg, po by LC-MS/MS analysis; format: ADME, organism-based; design: time 0 - last, route oral, dose 3 mg/kg; details: in vivo
[20] = Bioavailability in rat at 1 mg/kg, iv by LC-MS/MS analysis; format: ADME, organism-based; details: in vivo
[21] = Bioavailability in mouse at 1 mg/kg, iv by LC-MS/MS analysis; format: ADME, organism-based; details: in vivo
[22] = Clearance in rat at 1 mg/kg, iv by LC-MS/MS analysis; format: ADME, organism-based; details: in vivo
[23] = Clearance in mouse at 1 mg/kg, iv by LC-MS/MS analysis; format: ADME, organism-based; details: in vivo
[24] = Volume of distribution at steady state in rat at 1 mg/kg, iv by LC-MS/MS analysis; format: ADME, organism-based; details: in vivo, read-out: Vdss
[25] = Volume of distribution at steady state in mouse at 1 mg/kg, iv by LC-MS/MS analysis; format: ADME, organism-based; details: in vivo, read-out: Vdss

Structure (SMILES): Cc1cnc(Oc2ccc3nc(COc4cccc(C(=O)O)c4)n(C)c3c2)c(C)c1
remaining at 0.5 h [1]: 80%
clearance [2]: 2.06 mL/min/kg
bioavailability [3]: 89%

Structure (SMILES): CCc1cc(Oc2ccc3nc(COc4cccc(C(=O)O)c4)n(C)c3c2)ccn1
logD at 0.5 h [4]: 1.3
remaining at 0.5 h [5]: 88%

Structure (SMILES): Cc1ccc(Oc2ccc3nc(COc4cccc(C(=O)O)c4)n(C)c3c2F)c(C)n1
Cmax [6]: 1290 ng/mL
logD at 0.5 h [4]: 1.6
remaining at 0.5 h [5]: 100%
remaining at 0.5 h [7]: 100%
remaining at 0.5 h [1]: 100%
Cmax [8]: 28800 ng/mL
Tmax [9]: 0.5 h
half-life [10]: 9.34 h
AUC(0-t) [11]: 128000 ng·h/mL
Vd [12]: 0.15 L/kg
clearance [2]: 0.4 mL/min/kg
bioavailability [3]: 76%
Cmax [13]: 3490 ng/mL
Tmax [14]: 2.25 h
Tmax [15]: 0.5 h
half-life [16]: 3.45 h
half-life [17]: 4.35 h
AUC(0-t) [18]: 28000 ng·h/mL
AUC(0-t) [19]: 2070 ng·h/mL
bioavailability [20]: 74%
bioavailability [21]: 21%
clearance [22]: 1.29 mL/min/kg
clearance [23]: 4.91 mL/min/kg
Vd [24]: 0.27 L/kg
Vd [25]: 0.62 L/kg

Structure (SMILES): Cc1cncc(Oc2ccc3nc(COc4cccc(C(=O)O)c4)n(C)c3c2)c1
logD at 0.5 h [4]: 1

Structure (SMILES): Cc1ccc(Oc2ccc3nc(COc4cccc(C(=O)O)c4)n(C)c3c2C)c(C)n1
logD at 0.5 h [4]: 1.8

Structure (SMILES): Cc1ccc(Oc2cc(C)c3nc(COc4cccc(C(=O)O)c4)n(C)c3c2)c(C)n1
logD at 0.5 h [4]: 1.7
remaining at 0.5 h [5]: 100%

Structure (SMILES): CCOc1cc(Oc2ccc(C)nc2C)cc2c1nc(COc1cccc(C(=O)O)c1)n2C
logD at 0.5 h [4]: 1.6
remaining at 0.5 h [5]: 100%

Structure (SMILES): Cc1ccc(Oc2ccc3nc(COc4cccc(C(=O)O)c4)n(C)c3c2)c(C)n1
logD at 0.5 h [4]: 1.3
remaining at 0.5 h [5]: 100%
remaining at 0.5 h [7]: 100%
remaining at 0.5 h [1]: 100%

Structure (SMILES): CCOc1cc(Oc2ccnc(OC)c2)cc2c1nc(COc1cccc(C(=O)O)c1)n2C
logD at 0.5 h [4]: 1.7
remaining at 0.5 h [5]: 100%

Structure (SMILES): COc1cc(Oc2cc(C)c3nc(COc4cccc(C(=O)O)c4)n(C)c3c2)ccn1
logD at 0.5 h [4]: 1.7
remaining at 0.5 h [5]: 100%

Structure (SMILES): COc1cc(Oc2ccc3nc(COc4cccc(C(=O)O)c4)n(C)c3c2F)ccn1
logD at 0.5 h [4]: 1.7
remaining at 0.5 h [5]: 97%

Structure (SMILES): COc1cc(Oc2cc(OC(C)C)c3nc(COc4cccc(C(=O)O)c4)n(C)c3c2)ccn1
logD at 0.5 h [4]: 2
remaining at 0.5 h [5]: 97%
remaining at 0.5 h [7]: 91%
remaining at 0.5 h [1]: 94%

Structure (SMILES): COc1cc(Oc2ccc3nc(COc4cccc(C(=O)O)c4)n(C)c3c2)cc(C)n1
logD at 0.5 h [4]: 1.7
remaining at 0.5 h [5]: 96%
remaining at 0.5 h [7]: 96%
remaining at 0.5 h [1]: 85%

Structure (SMILES): Cc1ccc(Oc2cc(OC(C)C)c3nc(COc4cccc(C(=O)O)c4)n(C)c3c2)c(C)n1
logD at 0.5 h [4]: 1.9
remaining at 0.5 h [5]: 91%
remaining at 0.5 h [7]: 65%
remaining at 0.5 h [1]: 81%

Structure (SMILES): CCCOc1cc(Oc2ccc(C)nc2C)cc2c1nc(COc1cccc(C(=O)O)c1)n2C
logD at 0.5 h [4]: 2.2

Structure (SMILES): Cc1cc(Oc2ccc3nc(COc4cccc(C(=O)O)c4)n(C)c3c2)cc(C)n1
logD at 0.5 h [4]: 1

Structure (SMILES): COc1cc(Oc2ccc3nc(COc4cccc(C(=O)O)c4)n(C)c3n2)cc(C)n1
logD at 0.5 h [4]: 1.2
remaining at 0.5 h [5]: 91%
remaining at 0.5 h [7]: 98%
remaining at 0.5 h [1]: 100%
Cmax [8]: 500 ng/mL
Tmax [9]: 4.5 h
half-life [10]: 7.3 h
AUC(0-t) [11]: 5120 ng·h/mL
Vd [12]: 0.35 L/kg
clearance [2]: 2.08 mL/min/kg
bioavailability [3]: 18%

Structure (SMILES): Cc1cnc(Oc2cc(OC(C)C)c3nc(COc4cccc(C(=O)O)c4)n(C)c3c2)c(C)c1
logD at 0.5 h [4]: 2
remaining at 0.5 h [5]: 96%
remaining at 0.5 h [7]: 13%
remaining at 0.5 h [1]: 84%

Structure (SMILES): CCOc1cc(Oc2ccc3nc(COc4cccc(C(=O)O)c4)n(C)c3c2)ccn1
logD at 0.5 h [4]: 1.8
remaining at 0.5 h [5]: 94%

Structure (SMILES): COc1cc(Oc2ccc(C)nc2C)cc2c1nc(COc1cccc(C(=O)O)c1)n2C
logD at 0.5 h [4]: 1.2

Structure (SMILES): CCOc1cc(Oc2ncc(C)cc2C)cc2c1nc(COc1cccc(C(=O)O)c1)n2C
logD at 0.5 h [4]: 1.7
remaining at 0.5 h [5]: 100%

The remaining lines, values ahead:

logD at 0.5 h [4]: 1.4
Structure (SMILES): COc1nc(C)ccc1Oc1ccc2nc(COc3cccc(C(=O)O)c3)n(C)c2c1

logD at 0.5 h [4]: 0.9
remaining at 0.5 h [5]: 100%
Structure (SMILES): Cc1cc(Oc2ccc3nc(COc4cccc(C(=O)O)c4)n(C)c3c2)ccn1

logD at 0.5 h [4]: 0.9
Structure (SMILES): COc1cncc(Oc2ccc3nc(COc4cccc(C(=O)O)c4)n(C)c3c2)c1

logD at 0.5 h [4]: 0.8
remaining at 0.5 h [5]: 87%
Structure (SMILES): Cc1ccc(Oc2ccc3nc(COc4cccc(C(=O)O)c4)n(C)c3c2)cn1

logD at 0.5 h [4]: 1.3
remaining at 0.5 h [5]: 98%
remaining at 0.5 h [7]: 100%
remaining at 0.5 h [1]: 100%
Structure (SMILES): COc1cc(Oc2ccc3nc(COc4cccc(C(=O)O)c4)n(C)c3c2)ccn1

logD at 0.5 h [4]: 0.8
remaining at 0.5 h [5]: 100%
Structure (SMILES): Cc1ccncc1Oc1ccc2nc(COc3cccc(C(=O)O)c3)n(C)c2c1

logD at 0.5 h [4]: 1
remaining at 0.5 h [5]: 98%
Structure (SMILES): Cc1ncccc1Oc1ccc2nc(COc3cccc(C(=O)O)c3)n(C)c2c1

logD at 0.5 h [4]: 2
remaining at 0.5 h [5]: 100%
remaining at 0.5 h [7]: 82%
remaining at 0.5 h [1]: 98%
Structure (SMILES): COc1ncc(Oc2ccc3nc(COc4cccc(C(=O)O)c4)n(C)c3c2)cc1C

logD at 0.5 h [4]: 0.9
Structure (SMILES): COc1ncccc1Oc1ccc2nc(COc3cccc(C(=O)O)c3)n(C)c2c1

logD at 0.5 h [4]: 1.7
Structure (SMILES): COc1ccc(Oc2ccc3nc(COc4cccc(C(=O)O)c4)n(C)c3c2)c(C)n1

logD at 0.5 h [4]: 1.3
Structure (SMILES): COc1ccc(Oc2ccc3nc(COc4cccc(C(=O)O)c4)n(C)c3c2)cn1

logD at 0.5 h [4]: 1.1
Structure (SMILES): Cn1c(COc2cccc(C(=O)O)c2)nc2ccc(Oc3ccnc(Cl)c3)cc21

logD at 0.5 h [4]: 0.5
remaining at 0.5 h [5]: 100%
Structure (SMILES): Cn1c(COc2cccc(C(=O)O)c2)nc2ccc(Oc3cccnc3)cc21
